Structures are written as SMILES. pIC50: −log10 of the molar value.

One assay has as its target ACC1 (Homo sapiens, UniProt Q13085). The experiment in a line: In vitro ACC1 inhibition assay (ADP-Glo). To be noted: read-out: ACC1. It is filed as biochemical. As for the experimental part:
An exemplary procedure for the in vitro ACC inhibition assay, which can be used to determine the inhibitory action of compounds of the invention toward either ACC1 or ACC2, follows. The ADP-Glo™ Kinase Assay kit from Promega was used. The ADP-Glo™ Kinase Assay is a luminescent ADP detection assay to measure enzymatic activity by quantifying the amount of ADP produced during an enzyme reaction. The assay is performed in two steps; first, after the enzyme reaction, an equal volume of ADP-Glo™ Reagent is added to terminate the reaction and deplete the remaining ATP. Second, the Kinase Detection Reagent is added to simultaneously convert ADP to ATP and allow the newly synthesized ATP to be measured using a luciferase/luciferin reaction. Luminescence can be correlated to ADP concentrations by using an ATP-to-ADP conversion curve. The detailed procedure is as follows. 50 μL of the compound being tested (600 uM in DMSO) was added to a 384-well dilution plate. The compound was diluted 1:3 in succession in DMSO for each row for 11 wells. 0.5 μL ACC2 working solution was added to 384-well white Optiplate assay plate. 0.5 μL diluted compound solution in each column from step 2 to assay plate, each row containing 2 replicates. […] The plates were incubated at room temperature for 15 minutes. 5 μL substrate working solution was added to each well to initiate reaction. […] Plates were incubated at room temperature for 60 minutes. 10 μL ADP glo reagent was added. Plates were incubated at room temperature for 40 minutes. 20 μL kinase detection reagent was added.
Data for each concentration, as well as the positive and negative controls were averaged, and the standard deviation calculated. Percent inhibition was calculated by the formula: 100× (average negative control−compound)/(average negative control−average positive control). The IC50 for each compound was calculated by fitting the data with a non-linear regression equation: Y=Bottom+(Top-Bottom)/(1+10^((Log IC50−X)*HillSlope)), where X is the log of compound concentration and Y is percent inhibition.
The compound numbers correspond to the compound numbers in Table 1.

Another assay addresses ACC2 (Homo sapiens, UniProt O00763). The experiment in a line: In vitro ACC2 inhibition assay (ADP-Glo). It is filed as biochemical. To be noted: read-out: ACC2. The method in brief: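 Enzyme (human ACC1 or ACC2) and compound, serially diluted 1:3 over 11 points from a 600 uM DMSO stock, were preincubated 15 min before substrate addition.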
(In general: ADP-Glo first removes unused ATP, then detects ADP through luciferase.)

Chain of ACC2 (O00763 whole entry, species assumed): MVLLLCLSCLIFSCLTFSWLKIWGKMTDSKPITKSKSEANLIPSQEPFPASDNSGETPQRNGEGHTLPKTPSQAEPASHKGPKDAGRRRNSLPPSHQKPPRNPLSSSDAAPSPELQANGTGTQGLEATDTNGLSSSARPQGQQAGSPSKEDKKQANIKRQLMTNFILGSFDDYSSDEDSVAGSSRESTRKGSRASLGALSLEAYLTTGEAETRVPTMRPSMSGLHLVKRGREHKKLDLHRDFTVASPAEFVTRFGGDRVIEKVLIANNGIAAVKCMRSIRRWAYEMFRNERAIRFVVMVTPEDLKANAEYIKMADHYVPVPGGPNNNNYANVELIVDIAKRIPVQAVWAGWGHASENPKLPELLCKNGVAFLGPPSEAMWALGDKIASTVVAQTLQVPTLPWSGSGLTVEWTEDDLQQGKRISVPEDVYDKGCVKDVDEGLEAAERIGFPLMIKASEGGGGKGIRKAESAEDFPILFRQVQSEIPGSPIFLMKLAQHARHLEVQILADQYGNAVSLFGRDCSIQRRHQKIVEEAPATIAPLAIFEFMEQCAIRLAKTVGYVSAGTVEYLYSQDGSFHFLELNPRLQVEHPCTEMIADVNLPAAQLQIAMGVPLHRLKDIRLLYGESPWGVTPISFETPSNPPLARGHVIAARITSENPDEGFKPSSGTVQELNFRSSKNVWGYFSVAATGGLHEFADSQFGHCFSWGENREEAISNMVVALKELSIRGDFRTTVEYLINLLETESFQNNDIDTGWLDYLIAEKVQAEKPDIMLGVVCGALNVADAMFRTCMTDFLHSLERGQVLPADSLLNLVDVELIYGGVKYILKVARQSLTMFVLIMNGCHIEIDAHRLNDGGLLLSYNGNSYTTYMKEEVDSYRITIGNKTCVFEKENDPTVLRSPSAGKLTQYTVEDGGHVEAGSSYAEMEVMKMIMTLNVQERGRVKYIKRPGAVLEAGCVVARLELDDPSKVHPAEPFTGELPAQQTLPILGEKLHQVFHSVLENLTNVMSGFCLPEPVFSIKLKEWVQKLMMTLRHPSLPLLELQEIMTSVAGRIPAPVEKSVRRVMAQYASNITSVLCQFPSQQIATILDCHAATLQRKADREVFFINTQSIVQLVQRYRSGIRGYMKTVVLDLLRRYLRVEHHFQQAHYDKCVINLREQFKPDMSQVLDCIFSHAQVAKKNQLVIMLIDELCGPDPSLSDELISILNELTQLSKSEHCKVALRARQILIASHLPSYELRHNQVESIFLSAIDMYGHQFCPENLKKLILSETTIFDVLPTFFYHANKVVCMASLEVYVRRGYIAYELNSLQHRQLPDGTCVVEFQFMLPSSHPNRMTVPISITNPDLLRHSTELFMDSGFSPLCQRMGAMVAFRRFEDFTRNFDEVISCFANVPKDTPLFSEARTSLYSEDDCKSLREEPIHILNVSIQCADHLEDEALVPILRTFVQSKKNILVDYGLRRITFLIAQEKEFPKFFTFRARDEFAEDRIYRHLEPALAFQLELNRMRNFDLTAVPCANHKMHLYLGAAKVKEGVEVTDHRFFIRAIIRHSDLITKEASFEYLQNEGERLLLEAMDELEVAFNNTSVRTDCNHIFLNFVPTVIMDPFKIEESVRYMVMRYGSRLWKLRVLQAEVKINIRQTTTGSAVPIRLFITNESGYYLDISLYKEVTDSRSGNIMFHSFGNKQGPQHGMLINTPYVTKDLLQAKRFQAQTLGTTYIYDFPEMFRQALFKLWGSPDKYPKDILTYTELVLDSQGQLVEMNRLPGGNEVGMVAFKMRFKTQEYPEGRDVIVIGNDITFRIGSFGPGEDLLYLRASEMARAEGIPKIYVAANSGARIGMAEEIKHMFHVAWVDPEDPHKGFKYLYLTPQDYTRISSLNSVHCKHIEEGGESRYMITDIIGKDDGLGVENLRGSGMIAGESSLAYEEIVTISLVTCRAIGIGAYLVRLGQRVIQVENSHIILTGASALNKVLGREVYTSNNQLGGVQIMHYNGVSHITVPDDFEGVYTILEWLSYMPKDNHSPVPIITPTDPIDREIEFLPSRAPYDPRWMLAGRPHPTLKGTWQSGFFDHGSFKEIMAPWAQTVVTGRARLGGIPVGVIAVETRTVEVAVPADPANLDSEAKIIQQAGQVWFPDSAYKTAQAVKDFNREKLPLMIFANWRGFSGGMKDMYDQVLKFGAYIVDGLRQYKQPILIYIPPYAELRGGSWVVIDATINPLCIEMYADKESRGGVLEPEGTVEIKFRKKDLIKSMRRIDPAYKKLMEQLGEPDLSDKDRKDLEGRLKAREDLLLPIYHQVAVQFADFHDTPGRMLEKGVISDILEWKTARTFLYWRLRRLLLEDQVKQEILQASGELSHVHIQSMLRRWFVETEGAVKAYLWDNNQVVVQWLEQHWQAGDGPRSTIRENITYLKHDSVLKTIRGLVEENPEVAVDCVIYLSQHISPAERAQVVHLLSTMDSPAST

Turning to `CCOC(=O)c1sc2c(c1C)c(=O)n(CC(=O)O)c(=O)n2CC(OC(C)C)c1ccccc1` (stereo in doubt) [I-96, (S)-2-(6-(ethoxycarbonyl)-1-(2-isopropoxy-2-phenylethyl)-5-methyl-2,4-dioxo-1,2-dihydrothieno[2,3-d]pyrimidin-3(4H)-yl)acetic acid], the pIC50 on ACC1 was greater than 7.00; at ACC2, 4.70 to 5.30. Turning to `CCOC(=O)c1sc2c(c1C)c(=O)n(C(C)(C)C(=O)O)c(=O)n2C[C@H](OC(C)CC)c1ccccc1` (stereo in doubt) [I-131, 2-[1-[(2R)-2-[(2R)-butan-2-yloxy]-2-phenylethyl]-6-(ethoxycarbonyl)-5-methyl-2,4-dioxo-1H,2H,3H,4H-thieno[2,3-d]pyrimidin-3-yl]-2-methylpropanoic acid], the pIC50 at ACC1 and on ACC2 was greater than 6.00 in each case.

Take `Cc1c(-c2ncco2)sc2c1c(=O)n(C(C)(C)C(=O)O)c(=O)n2CC(Oc1ccccc1)c1ccccc1` (stereo in doubt) [I-143, 2-methyl-2-[5-methyl-6-(1,3-oxazol-2-yl)-2,4-dioxo-1-[(2S)-2-phenoxy-2-phenylethyl]-1H,2H,3H,4H-thieno[2,3-d]pyrimidin-3-yl]propanoic acid]: the pIC50 on ACC1 and at ACC2 was greater than 6.00 in each case. With `CCOC(=O)c1sc2c(c1C)c(=O)n(CCO)c(=O)n2CCc1ccccc1` [I-1], the pIC50 at ACC1 is greater than 5.30; at ACC2, 4.70 to 5.30. With `CCOC(=O)c1sc2c(c1C)c(=O)n(CC(=O)O)c(=O)n2CCc1ccccc1` [I-13], the pIC50 on ACC1 and on ACC2 was greater than 5.30 each time. Turning to `CCOC(=O)c1sc2c(c1C)c(=O)n(CC(N)=O)c(=O)n2CCc1ccccc1` [I-14], the pIC50 at ACC1 and on ACC2 was greater than 5.30 in each case. Turning to `CCOC(=O)c1sc2c(c1C)c(=O)n(CCCO)c(=O)n2CCc1ccccc1` [I-19, ethyl 3-(3-hydroxypropyl)-5-methyl-2,4-dioxo-1-(2-phenylethyl)-1H,2H,3H,4H-thieno[2,3-d]pyrimidine-6-carboxylate], the pIC50 on ACC1 is greater than 5.30; at ACC2 it was 4.70 to 5.30. `CCOC(=O)c1sc2c(c1C)c(=O)n(CCO)c(=O)n2CCc1ccccc1Cl` [I-20, ethyl 1-[2-(2-chlorophenyl)ethyl]-3-(2-hydroxyethyl)-5-methyl-2,4-dioxo-1H,2H,3H,4H-thieno[2,3-d]pyrimidine-6-carboxylate]: the values for the pIC50 on ACC1 and at ACC2 were 4.70 to 5.30 and greater than 5.30, respectively. As to `COc1ccccc1[C@@H](O)Cn1c(=O)n(C(C)(C)C(=O)O)c(=O)c2c(C)c(-c3ncco3)sc21` [I-248, 2-[1-[(2R)-2-hydroxy-2-(2-methoxyphenyl)ethyl]-5-methyl-6-(1,3-oxazol-2-yl)-2,4-dioxo-1H,2H,3H,4H-thieno[2,3-d]pyrimidin-3-yl]-2-methylpropanoic acid], the pIC50 at ACC1 was greater than 6.00. Still for that read-out and setting: as for `Cc1c(-c2ncco2)sc2c1c(=O)n(C(C)(C)C(N)=O)c(=O)n2C[C@H](OC1CCOCC1)c1ccccc1Cl` [I-252, 2-[1-[(2R)-2-(2-chlorophenyl)-2-(oxan-4-yloxy)ethyl]-5-methyl-6-(1,3-oxazol-2-yl)-2,4-dioxo-1H,2H,3H,4H-thieno[2,3-d]pyrimidin-3-yl]-2-methylpropanamide], the figure is greater than 6.00.

On to `Cc1c(-c2ncco2)sc2c1c(=O)n(C(C)(C)C(=O)N1CCC1)c(=O)n2C[C@H](OC1CCOCC1)c1ccccc1Cl` [I-253, 3-[1-(azetidin-1-yl)-2-methyl-1-oxopropan-2-yl]-1-[(2R)-2-(2-chlorophenyl)-2-(oxan-4-yloxy)ethyl]-5-methyl-6-(1,3-oxazol-2-yl)-1H,2H,3H,4H-thieno[2,3-d]pyrimidine-2,4-dione], for which, on ACC1, the pIC50 was greater than 6.00. `Cc1c(-c2ncco2)sc2c1c(=O)n(C(C)(C)C(=O)O)c(=O)n2C[C@H](OC(C)C)c1ccccc1OC(F)(F)F` [I-265, (R)-2-(1-(2-isopropoxy-2-(2-(trifluoromethoxy)phenyl)ethyl)-5-methyl-6-(oxazol-2-yl)-2,4-doxo-1,2-dihydrotheno[2,3-d]pyrimidin-3(4H)-yl)-2-methylpropanoic acid]: the pIC50 on ACC1 was greater than 6.00. Take `Cc1c(-c2ncco2)sc2c1c(=O)n(C(C)(C)C(=O)O)c(=O)n2C[C@H](OC1CCOCC1)c1ccccc1C(F)(F)F` [I-266, 2-methyl-2-[5-methyl-1-[(2R)-2-(oxan-4-yloxy)-2-[2-(trifluoromethyl)phenyl]ethyl]-6-(1,3-oxazol-2-yl)-2,4-dioxo-1H,2H,3H,4H-thieno[2,3-d]pyrimidin-3-yl]propanoic acid]: on ACC1, the pIC50 is greater than 6.00. Turning to `COc1ccccc1[C@H](Cn1c(=O)n(C(C)(C)C(=O)O)c(=O)c2c(C)c(-c3ncco3)sc21)OCC1COC1` [I-269, (R)-2-(1-(2-(2-methoxyphenyl)-2-(oxetan-3-ylmethoxy)ethyl)-5-methyl-6-(oxazol-2-yl)-2,4-dioxo-1,2-dihydrothieno[2,3-d]pyrimidin-3(4H)-yl)-2-methylpropanoic acid], the pIC50 on ACC1 was greater than 5.30. For the compound `COc1cc(Br)ccc1[C@H](Cn1c(=O)n(C(C)(C)C(=O)O)c(=O)c2c(C)c(-c3ncco3)sc21)OC1CCOCC1` [I-270, 2-[1-[(2R)-2-(4-bromo-2-methoxyphenyl)-2-(oxan-4-yloxy)ethyl]-5-methyl-6-(1,3-oxazol-2-yl)-2,4-dioxo-1H,2H,3H,4H-thieno[2,3-d]pyrimidin-3-yl]-2-methylpropanoic acid], the pIC50 on ACC1 was greater than 5.30. For `Cc1c(-c2ncco2)sc2c1c(=O)n(C(C)(C)C(=O)O)c(=O)n2C[C@H](OC1CCOCC1)c1ccccc1O` [I-273, 2-[1-[(2R)-2-(2-hydroxyphenyl)-2-(oxan-4-yloxy)ethyl]-5-methyl-6-(1,3-oxazol-2-yl)-2,4-dioxo-1H,2H,3H,4H-thieno[2,3-d]pyrimidin-3-yl]-2-methylpropanoic acid], the pIC50 at ACC1 was greater than 7.00.

On to `COc1ccccc1[C@H](Cn1c(=O)n(C(C)(C)C(=O)N2CCC2)c(=O)c2c(C)c(-c3ncco3)sc21)OCC1CCOCC1` [I-275, 3-[1-(azetidin-1-yl)-2-methyl-1-oxopropan-2-yl]-1-[(2R)-2-(2-methoxyphenyl)-2-(oxan-4-ylmethoxy)ethyl]-5-methy-6-(1,3-oxazol-2-yl)-1H,2H,3H,4H-thieno[2,3-d]pyrimidine-2,4-dione], for which the pIC50 at ACC1 is greater than 7.00. Still for that read-out and setting: as for `COc1ccccc1[C@H](Cn1c(=O)n(C(C)(C)C(=O)O)c(=O)c2c(C)c(-c3ncco3)sc21)OC1CCC(=O)CC1` [I-276, (R)-2-(1-(2-(2-methoxyphenyl)-2-((4-oxocyclohexyl)oxy)ethyl)-5-methyl-6-(oxazol-2-yl)-2,4-dioxo-1,2-dihydrotheno[2,3-d]pyrimidin-3(4H)-yl)-2-methylpropanoic acid], the figure is greater than 7.00; as for `Cc1c(-c2ncco2)sc2c1c(=O)n(C(C)(C)C(N)=O)c(=O)n2C[C@H](OC1CCOCC1)c1ccccc1O` [I-283, 2-[1-[(2R)-2-(2-hydroxyphenyl)-2-(oxan-4-yloxy)ethyl]-5-methyl-6-(1,3-oxazol-2-yl)-2,4-dioxo-1H,2H,3H,4H-thieno[2,3-d]pyrimidin-3-yl]-2-methylpropanamide], greater than 7.00. Take `Cc1c(-c2ncco2)sc2c1c(=O)n(C(C)(C)C(=O)N1CCC1)c(=O)n2C[C@H](OC1CCOCC1)c1ccccc1O` [I-284, 3-[1-(azetidin-1-yl)-2-methyl-1-oxopropan-2-yl]-1-[(2R)-2-(2-hydroxyphenyl)-2-(oxan-4-yloxy)ethyl]-5-methyl-6-(1,3-oxazol-2-yl)-1H,2H,3H,4H-thieno[2,3-d]pyrimidine-2,4-dione]: the pIC50 on ACC1 is greater than 7.00.
